Like-named read-outs stand apart in the source and are kept apart here.
Assays:
[1] = tested on: subjects with ESRD receiving hemodialysis; experiment: MK-7 in subjects with stable ESRD receiving hemodialysis: biomarker changes day 1 to day 15; assay type: in vivo, human; conditions: 10 mg capsule of MK-7 per day orally for 14 days; change between day 1 and day 15
Description: This example describes the administration of MK-7 to subjects with ESRD receiving hemodialysis, and who are at risk of developing calciphylaxis. Administration of MK-7 can result in a change in certain biomarker levels indicative of the prevention of the development of calciphylaxis, or in the arrest or slowing down of the development of calciphylaxis. A number of subjects with stable ESRD but without calciphylaxis are enrolled in the study, whereupon the subjects orally receive a 10 mg capsule of MK-7 per day for 14 days. The levels of certain biomarkers, including uncarboxylated Matrix Gla Protein (MGP), uncarboxylated osteocalcin, osteoprotegerin, Fetuin A and hs-CRP were assessed on day 1 and on day 15 (the end of treatment), and the changes between day 1 and day 15 were calculated.

[2] = tested on: adult hemodialysis patients; conditions: cited from earlier work
osteocalcin = conditions: 100-200 μg/d for 4 to 12 weeks; significantly and in a dose-dependent manner; cited from earlier work
[3] = tested on: subjects at risk of development of calciphylaxis; experiment: MK-7 and/or MKH2-7 in subjects at risk for development of calciphylaxis (Example 1); assay type: in vivo, human; conditions: 10 mg, 25 mg or 50 mg orally once daily; blood samples; contemplated
Text: This example describes the administration of MK-7 and/or MKH2-7 to subjects at risk for development of calciphylaxis, but who have not yet developed the characteristic skin lesions of calciphylaxis. Risk factors to be considered include, but are not limited to, diabetes mellitus, obesity, ESRD and/or hemodialysis, and prior treatment with warfarin (Nigwekar et al. (2016), supra). It is contemplated that administration of MK-7 and/or MKH2-7 can result in protection of the subjects from skin lesions and a change in certain biomarker levels indicative of the prevention of the development of calciphylaxis.
Subjects at risk of development of calciphylaxis orally receive MK-7 and/or MKH2-7 at 10 mg, 25 mg or 50 mg once daily for at least 2 weeks, 4 weeks, 6 weeks, 8 weeks, 3 months, 6 months, 1 year, or indefinitely. The dosage form is a 10 mg or 25 mg soft-gel capsule. Two 25 mg capsules are be administered once daily to the 50 mg dosage cohort.
It should be noted that not all subjects with elevated risk factors for calciphylaxis will develop the characteristic skin lesions of calciphylaxis. The intent of treating with MK-7 and/or MKH2-7 proactively (prior to a clinical diagnosis of calciphylaxis) is the prevention of lesion appearance. Thus, a drop in frequency of, or elimination of lesion appearances is contemplated to be a successful treatment.
Several biomarkers can be assessed to determine the efficacy of MK-7 and/or MKH2-7 at the three dose levels. Exemplary biomarkers include PIVKA-II; uncarboxylated and total Matrix Gla Protein (MGP); uncarboxylated, carboxylated and total osteocalcin protein; uncarboxylated, carboxylated and total Protein C, osteoprotegerin, Fetuin A and hs-CRP.
Blood samples are obtained to measure the biomarkers according to the following schedule. Blood sampling can occur during treatment on a weekly or monthly basis. It is contemplated that administration of MK-7 and/or MKH2-7 will result in (i) an increase in PIVKA-II, osteoprotegerin, or Fetuin A, which is indicative of slowing the progression of, arresting, or reversing, calciphylaxis, (ii) a decrease in uncarboxylated MGP, uncarboxylated osteocalcin, and/or uncarboxylated Protein C, which is indicative of slowing the progression of, arresting, or reversing calciphylaxis.
Further, pulse wave velocity (PWV) can be measured to assess arterial compliance. Improved vascular compliance will be indicative of slowing the progression of, arresting, or reversing calciphylaxis.

[4] = tested on: subjects diagnosed with calciphylaxis; experiment: MK-7 and/or MKH2-7 in subjects diagnosed with calciphylaxis (Example 2); assay type: in vivo, human; conditions: 10 mg, 25 mg or 50 mg orally once daily; contemplated
Text: This example describes the administration of MK-7 and/or MKH2-7 to subjects diagnosed with calciphylaxis. Typical symptoms include presentation of characteristic painful skin lesions (Nigwekar et al. (2015) “Calciphylaxis: Risk Factors, Diagnosis, and Treatment.” Am. J. Kidney Dis. 66:133-46). Definitive diagnosis of calciphylaxis is achieved via skin biopsy (Nigwekar, 2015 supra). Further conditions need to be considered for correct diagnosis (Id.).
Subjects diagnosed with calciphylaxis orally receive MK-7 and/or MKH2-7 at 10 mg, 25 mg or 50 mg once daily for at least 2 weeks, 4 weeks, 6 weeks, 8 weeks, 3 months, 6 months, 1 year, or indefinitely. The dosage form is a 10 mg or 25 mg soft-gel capsule. Two 25 mg capsules are administered once daily to the 50 mg dosage cohort.
The arrest of, or decreases in lesion size and frequency is contemplated to be an indication of successful treatment.
Additionally, because calciphylaxis has a considerable mortality risk, increased overall survival time of diagnosed subjects will be an indication of treatment success. It is contemplated that administration of MK-7 and/or MKH2-7 according to the foregoing will result in an increased overall survival time of diagnosed subjects.

[5] = vitamin K2 supplementation, hemodialysis patients

Row | Compound | average increase in Fetuin A [1] | average increase in osteoprotegerin [1] | average reduction in hs-CRP [1] | average reduction in uncarboxylated MGP [1] | average reduction in uncarboxylated osteocalcin [1] | response rate in the reduction in dp-ucMGP levels ([2]; group receiving 135 μg of menaquinone-7) | response rate in the reduction in dp-ucMGP levels ([2]; group receiving 360 μg of menaquinone-7) | ratio of carboxylated to undercarboxylated osteocalcin (osteocalcin) | Fetuin A [3] | PIVKA-II [3] | osteoprotegerin [3] | uncarboxylated MGP [3] | uncarboxylated Protein C [3] | uncarboxylated osteocalcin [3] | overall survival time of diagnosed subjects [4] | circulating PIVKA-II levels [2, 5] | circulating dp-ucMGP levels [2, 5] | circulating uncarboxylated osteocalcin levels [2, 5]
1 | CC(C)=CCC/C(C)=C/CC/C(C)=C/CC/C(C)=C/CC/C(C)=C/CC/C(C)=C/CC/C(C)=C/CC1=C(C)C(=O)c2ccccc2C1=O [MK-7, 2-[(2E,6E,10E,14E,18E,22E)-3,7,11,15,19,23,27-heptamethyloctacosa-2,6,10,14,18,22,26-heptaenyl]-3-methylnaphthalene-1,4-dione] | 23.1% | 14.5% | −35.8% | −21.9% | −55.5% | 77% | 93% | increase | increase | increase | increase | decrease | decrease | decrease | increased | – | – | –
2 | CC(C)=CCC/C(C)=C/CC/C(C)=C/CC/C(C)=C/CC/C(C)=C/CC/C(C)=C/CC/C(C)=C/Cc1c(C)c(O)c2ccccc2c1O [MKH2-7, 2-[(2E,6E,10E,14E,18E,22E)-3,7,11,15,19,23,27-heptamethyloctacosa-2,6,10,14,18,22,26-heptaenyl]-3-methylnaphthalene-1,4-diol] | – | – | – | – | – | – | – | – | increase | increase | increase | decrease | decrease | decrease | increased | – | – | –
3 | Vitamin K2 | – | – | – | – | – | – | – | – | – | – | – | – | – | – | – | dose- and time-dependent decrease | dose- and time-dependent decrease | dose- and time-dependent decrease
